± gives the standard deviation of the averaged measurements.
How the values were obtained:
[1] = compound: T1, C=CC(=O)Nc1cc2c(Nc3ccc(F)c(Cl)c3)ncnc2cc1OCCCN1CCOCC1 [CANERTINIB]; assay: surviving fraction relative to DMSO-only wells; higher = less growth inhibition; settings: exposure time: 5 days
In short: (§1)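 After seeding at 250–500 cells per well in 384-well plates and a 24-hour wait, log-phase tumour cell lines were exposed without interruption for five days to inhibitors at 0.5, 1, 5, 10, 50, 100, 500 and 1000 nM. CellTiter-Glo luminescence was recorded after 10 minutes at room temperature. Viability is reported as surviving fraction, the luminescence normalised to the median of DMSO-only wells.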

[2] = compound: T2, CCCCCCCCCCCCCCCC(=O)Nc1ccn([C@@H]2O[C@H](CO)[C@@H](O)[C@@H]2C#N)c(=O)n1 [SAPACITABINE]; assay: as above; settings: exposure time: 5 days
In short: as §1

[3] = compound: T3, CNC(=O)c1ccc(N2C(=S)N(c3ccc(C#N)c(C(F)(F)F)c3)C(=O)C2(C)C)cc1F [MDV3100]; assay: as above; settings: exposure time: 5 days
In short: as §1

[4] = compound: T1, CANERTINIB; assay: area under dose-response curve of surviving fraction (unscaled, Aref=0) (surviving fraction x log10(nM)); higher = more resistant; settings: exposure time: 5 days; dose range 0.5-1000 nM
In short: (§2)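 Tumour cell lines in 384-well plates were exposed for five days to eight inhibitor concentrations from 0.5 to 1000 nM. Viability was read by CellTiter-Glo luminescence, normalised to DMSO-only wells, in three screens per line. Dose-response survival curves were fitted to surviving fractions by 3-parameter logistic regression in the drc R package. Area under the curve is the unscaled activity area (Aref = 0) over log10 dose.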

[5] = compound: T2, SAPACITABINE; assay: as above; settings: exposure time: 5 days; dose range 0.5-1000 nM
In short: as §2

[6] = compound: T3, MDV3100; assay: as above; settings: exposure time: 5 days; dose range 0.5-1000 nM
In short: as §2

[7] = compound: T4, CC1(C)CC(=O)c2c(C(F)(F)F)nn(-c3ccc(C(N)=O)c(N[C@H]4CC[C@H](OC(=O)CN)CC4)c3)c2C1 [SNX-5422]; assay: surviving fraction relative to DMSO-only wells; higher = less growth inhibition; settings: exposure time: 5 days
In short: as §1

[8] = compound: T5, CC[C@@H]1C(=O)N(C)c2cnc(Nc3ccc(C(=O)NC4CCN(C)CC4)cc3OC)nc2N1C1CCCC1 [BI-2536]; assay: as above; settings: exposure time: 5 days
In short: as §1

[9] = compound: Nc1nc2[nH]cnc2c(=S)[nH]1 [TIOGUANINE]; assay: as above; settings: exposure time: 5 days
In short: as §1

[10] = compound: Cn1cc(C2=Nc3cc(NC(=O)C(N)C4CCCCC4)cc4c3C2=CNNC4=O)cn1; assay: as above; settings: exposure time: 5 days
In short: as §1

[11] = compound: T6, CN(C)C/C=C/C(=O)Nc1cc2c(Nc3ccc(F)c(Cl)c3)ncnc2cc1O[C@H]1CCOC1 [AFATINIB]; assay: as above; settings: exposure time: 5 days
In short: as §1

[12] = compound: T4, SNX-5422; assay: area under dose-response curve of surviving fraction (unscaled, Aref=0) (surviving fraction x log10(nM)); higher = more resistant; settings: exposure time: 5 days; dose range 0.5-1000 nM
In short: as §2

[13] = compound: T5, BI-2536; assay: as above; settings: exposure time: 5 days; dose range 0.5-1000 nM
In short: as §2

[14] = compound: Cn1cc(C2=Nc3cc(NC(=O)C(N)C4CCCCC4)cc4c3C2=CNNC4=O)cn1; assay: as above; settings: exposure time: 5 days; dose range 0.5-1000 nM
In short: as §2

[15] = compound: T6, AFATINIB; assay: as above; settings: exposure time: 5 days; dose range 0.5-1000 nM
In short: as §2

## CCK81 LARGE INTESTINE
[1]; 0.5 nM
  surviving fraction: 0.778 ± 0.19
[1]; 1 nM
  surviving fraction: 0.874 ± 0.16
[1]; 5 nM
  surviving fraction: 0.928 ± 0.13
[1]; 10 nM
  surviving fraction: 0.816 ± 0.18
[1]; 50 nM
  surviving fraction: 0.186 ± 0.03
[1]; 100 nM
  surviving fraction: 0.0957 ± 0.019
[1]; 500 nM
  surviving fraction: 0.0373 ± 0.0083
[1]; 1000 nM
  surviving fraction: 0.0263 ± 0.0059
[2]; 0.5 nM
  surviving fraction: 0.972 ± 0.18
[2]; 1 nM
  surviving fraction: 0.94 ± 0.2
[2]; 5 nM
  surviving fraction: 0.813 ± 0.13
[2]; 10 nM
  surviving fraction: 0.7 ± 0.13
[2]; 50 nM
  surviving fraction: 0.427 ± 0.12
[2]; 100 nM
  surviving fraction: 0.482 ± 0.041
[2]; 500 nM
  surviving fraction: 0.456 ± 0.047
[2]; 1000 nM
  surviving fraction: 0.47 ± 0.056
[3]; 0.5 nM
  surviving fraction: 0.843 ± 0.11
[3]; 1 nM
  surviving fraction: 0.8 ± 0.19
[3]; 5 nM
  surviving fraction: 0.717 ± 0.076
[3]; 10 nM
  surviving fraction: 0.728 ± 0.046
[3]; 50 nM
  surviving fraction: 0.75 ± 0.091
[3]; 100 nM
  surviving fraction: 0.757 ± 0.068
[3]; 500 nM
  surviving fraction: 0.79 ± 0.03
[3]; 1000 nM
  surviving fraction: 0.728 ± 0.06
[4]
  area under dose-response curve: 1.68
[5]
  area under dose-response curve: 2.16
[6]
  area under dose-response curve: 2.49

## RDES SOFT TISSUE
[7]; 0.5 nM
  surviving fraction: 1.13 ± 0.087
[7]; 1 nM
  surviving fraction: 1.28 ± 0.15
[7]; 5 nM
  surviving fraction: 1.07 ± 0.039
[7]; 10 nM
  surviving fraction: 1.14 ± 0.19
[7]; 50 nM
  surviving fraction: 0.459 ± 0.056
[7]; 100 nM
  surviving fraction: 0.367 ± 0.053
[7]; 500 nM
  surviving fraction: 0.056 ± 0.0095
[7]; 1000 nM
  surviving fraction: 0.0543 ± 0.0085
[8]; 0.5 nM
  surviving fraction: 1.05 ± 0.086
[8]; 1 nM
  surviving fraction: 1.11 ± 0.12
[8]; 5 nM
  surviving fraction: 0.603 ± 0.18
[8]; 10 nM
  surviving fraction: 0.0407 ± 0.0038
[8]; 50 nM
  surviving fraction: 0.034 ± 0.0036
[8]; 100 nM
  surviving fraction: 0.024 ± 0.001
[8]; 500 nM
  surviving fraction: 0.0287 ± 0.0015
[8]; 1000 nM
  surviving fraction: 0.0297 ± 0.0035
[9]; 0.5 nM
  surviving fraction: 1.19 ± 0.17
[9]; 1 nM
  surviving fraction: 1.42 ± 0.042
[9]; 5 nM
  surviving fraction: 1.33 ± 0.06
[9]; 10 nM
  surviving fraction: 1.35 ± 0.13
[9]; 50 nM
  surviving fraction: 1.25 ± 0.17
[9]; 100 nM
  surviving fraction: 1.19 ± 0.12
[9]; 500 nM
  surviving fraction: 1.07 ± 0.012
[9]; 1000 nM
  surviving fraction: 1.28 ± 0.15
[10]; 0.5 nM
  surviving fraction: 1.12 ± 0.071
[10]; 1 nM
  surviving fraction: 0.961 ± 0.14
[10]; 5 nM
  surviving fraction: 0.953 ± 0.08
[10]; 10 nM
  surviving fraction: 1.1 ± 0.21
[10]; 50 nM
  surviving fraction: 0.776 ± 0.2
[10]; 100 nM
  surviving fraction: 1.08 ± 0.39
[10]; 500 nM
  surviving fraction: 0.0493 ± 0.0045
[10]; 1000 nM
  surviving fraction: 0.0827 ± 0.011
[1]; 0.5 nM
  surviving fraction: 0.774 ± 0.16
[1]; 1 nM
  surviving fraction: 0.858 ± 0.12
[1]; 5 nM
  surviving fraction: 0.707 ± 0.049
[1]; 10 nM
  surviving fraction: 0.713 ± 0.19
[1]; 50 nM
  surviving fraction: 0.903 ± 0.063
[1]; 100 nM
  surviving fraction: 1.06 ± 0.14
[1]; 500 nM
  surviving fraction: 1.09 ± 0.032
[1]; 1000 nM
  surviving fraction: 0.921 ± 0.21
[11]; 0.5 nM
  surviving fraction: 1.33 ± 0.2
[11]; 1 nM
  surviving fraction: 1.29 ± 0.15
[11]; 5 nM
  surviving fraction: 1.17 ± 0.19
[11]; 10 nM
  surviving fraction: 1.3 ± 0.31
[11]; 50 nM
  surviving fraction: 0.988 ± 0.18
[11]; 100 nM
  surviving fraction: 1.16 ± 0.19
[11]; 500 nM
  surviving fraction: 1.13 ± 0.22
[11]; 1000 nM
  surviving fraction: 1.11 ± 0.019
[2]; 0.5 nM
  surviving fraction: 0.706 ± 0.16
[2]; 1 nM
  surviving fraction: 0.765 ± 0.047
[2]; 5 nM
  surviving fraction: 0.717 ± 0.13
[2]; 10 nM
  surviving fraction: 0.629 ± 0.12
[2]; 50 nM
  surviving fraction: 0.919 ± 0.073
[2]; 100 nM
  surviving fraction: 0.984 ± 0.034
[2]; 500 nM
  surviving fraction: 0.779 ± 0.15
[2]; 1000 nM
  surviving fraction: 0.117 ± 0.052
[3]; 0.5 nM
  surviving fraction: 1.25 ± 0.1
[3]; 1 nM
  surviving fraction: 1.07 ± 0.035
[3]; 5 nM
  surviving fraction: 1.11 ± 0.064
[3]; 10 nM
  surviving fraction: 1.15 ± 0.11
[3]; 50 nM
  surviving fraction: 1.2 ± 0.086
[3]; 100 nM
  surviving fraction: 1.12 ± 0.21
[3]; 500 nM
  surviving fraction: 1.38 ± 0.074
[3]; 1000 nM
  surviving fraction: 1.25 ± 0.19
[12]
  area under dose-response curve: 2.11
[13]
  area under dose-response curve: 1.09
[14]
  area under dose-response curve: 2.71
[4]
  area under dose-response curve: 2.83
[15]
  area under dose-response curve: 3.88
[5]
  area under dose-response curve: 2.34
[6]
  area under dose-response curve: 3.91

— the supplement of paper PMC6045584
